The values that follow come from ChEMBL document CHEMBL1139192, “Novel bis(indolyl)maleimide pyridinophanes that are potent, selective inhibitors of glycogen synthase kinase-3” (Bioorg Med Chem Lett, 2007).

Experiment [1] relates to Saccharomyces cerevisiae. The experiment can be described thus: Residual activity of yeast CK1 at 1 uM relative to control.
In experiment [2] the target is 3-phosphoinositide-dependent protein kinase 1 (Homo sapiens) (UniProt O15530). Briefly: Inhibition of human PDK1 at 1 uM relative to control; values are per cent of control.
Experiment [3] is filed under the species Homo sapiens. The experiment can be described thus: Inhibition of human CDK2/Cyclin E at 1 uM relative to control; values are per cent of control.
Experiment [4] addresses Protein kinase C beta type (Homo sapiens, UniProt P05771). The experiment can be described thus: Residual activity of human PKCbeta2 at 1 uM relative to control.
Experiment [5] concerns the target T1, Ephrin type-B receptor 4 (Homo sapiens) (UniProt P54760).
T1 sequence (whole entry): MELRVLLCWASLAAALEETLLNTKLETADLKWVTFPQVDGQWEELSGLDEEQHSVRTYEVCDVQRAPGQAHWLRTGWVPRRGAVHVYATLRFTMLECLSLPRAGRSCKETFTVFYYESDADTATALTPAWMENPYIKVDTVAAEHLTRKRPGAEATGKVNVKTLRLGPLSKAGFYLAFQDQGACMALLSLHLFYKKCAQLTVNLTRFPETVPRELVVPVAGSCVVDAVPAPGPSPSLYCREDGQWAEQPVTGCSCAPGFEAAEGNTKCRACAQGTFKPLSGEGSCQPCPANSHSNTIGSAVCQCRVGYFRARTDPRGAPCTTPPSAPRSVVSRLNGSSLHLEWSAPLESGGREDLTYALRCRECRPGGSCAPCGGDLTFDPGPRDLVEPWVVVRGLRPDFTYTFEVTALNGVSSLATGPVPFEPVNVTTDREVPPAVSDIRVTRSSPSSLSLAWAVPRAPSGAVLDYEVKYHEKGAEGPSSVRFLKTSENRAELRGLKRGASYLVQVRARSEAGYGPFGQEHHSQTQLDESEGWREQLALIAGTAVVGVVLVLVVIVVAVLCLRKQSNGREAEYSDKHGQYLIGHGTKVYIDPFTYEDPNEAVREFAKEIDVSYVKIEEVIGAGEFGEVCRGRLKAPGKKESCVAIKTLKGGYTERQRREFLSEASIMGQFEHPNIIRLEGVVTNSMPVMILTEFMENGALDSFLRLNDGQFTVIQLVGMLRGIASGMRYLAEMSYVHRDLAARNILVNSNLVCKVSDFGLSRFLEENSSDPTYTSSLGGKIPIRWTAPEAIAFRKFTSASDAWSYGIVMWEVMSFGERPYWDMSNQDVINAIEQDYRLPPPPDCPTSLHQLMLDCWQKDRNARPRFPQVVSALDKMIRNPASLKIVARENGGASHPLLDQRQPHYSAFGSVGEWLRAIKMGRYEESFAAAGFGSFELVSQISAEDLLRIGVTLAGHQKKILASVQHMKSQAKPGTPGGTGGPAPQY
The experiment can be described thus: Residual activity of human EphB4 at 1 uM relative to control.

Experiment [6] has as its target Epidermal growth factor receptor (Homo sapiens) (UniProt P00533). Briefly: Inhibition of human EGFR at 1 uM relative to control; values are per cent of control.
For experiment [7], the species on record is Homo sapiens. Briefly: Inhibition of human CDK7/Cyclin H at 1 uM relative to control; values are per cent of control.
In experiment [8] the target is T2, Ephrin type-B receptor 2 (Homo sapiens) (UniProt P29323).
T2 sequence (whole entry): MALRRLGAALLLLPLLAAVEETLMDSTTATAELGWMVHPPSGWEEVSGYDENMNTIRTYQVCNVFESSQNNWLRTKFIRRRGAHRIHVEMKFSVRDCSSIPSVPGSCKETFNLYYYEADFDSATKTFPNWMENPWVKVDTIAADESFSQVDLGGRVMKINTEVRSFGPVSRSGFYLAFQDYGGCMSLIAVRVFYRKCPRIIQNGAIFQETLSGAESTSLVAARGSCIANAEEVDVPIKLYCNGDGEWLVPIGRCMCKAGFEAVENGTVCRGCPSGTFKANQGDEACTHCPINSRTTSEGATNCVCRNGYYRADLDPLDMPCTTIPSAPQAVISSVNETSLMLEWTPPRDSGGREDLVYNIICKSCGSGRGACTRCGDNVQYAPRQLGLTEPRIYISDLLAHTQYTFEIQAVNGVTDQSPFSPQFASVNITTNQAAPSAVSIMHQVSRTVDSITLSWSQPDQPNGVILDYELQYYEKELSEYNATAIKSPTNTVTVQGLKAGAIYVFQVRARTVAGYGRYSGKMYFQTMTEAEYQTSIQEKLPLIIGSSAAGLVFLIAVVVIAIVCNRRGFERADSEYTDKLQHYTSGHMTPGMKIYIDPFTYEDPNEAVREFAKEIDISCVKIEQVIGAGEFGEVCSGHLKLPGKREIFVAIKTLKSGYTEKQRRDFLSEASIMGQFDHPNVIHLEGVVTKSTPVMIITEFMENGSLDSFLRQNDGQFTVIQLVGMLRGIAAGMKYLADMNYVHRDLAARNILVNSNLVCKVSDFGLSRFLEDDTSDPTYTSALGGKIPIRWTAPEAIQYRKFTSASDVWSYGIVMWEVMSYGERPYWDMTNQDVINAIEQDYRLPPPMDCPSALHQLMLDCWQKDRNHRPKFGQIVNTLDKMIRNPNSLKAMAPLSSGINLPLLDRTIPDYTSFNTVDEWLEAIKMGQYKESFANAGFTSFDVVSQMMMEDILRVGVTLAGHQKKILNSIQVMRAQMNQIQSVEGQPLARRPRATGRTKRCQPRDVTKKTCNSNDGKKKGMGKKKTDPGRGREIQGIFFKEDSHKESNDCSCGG
Briefly: Inhibition of human EphB2 at 1 uM relative to control; values are per cent of control.

Experiment [9] addresses MAP kinase-activated protein kinase 2 (Homo sapiens) (UniProt P49137). The experiment can be described thus: Inhibition of MAPKAPK2 at 1 uM relative to control; values are per cent of control.

Protein kinase C beta type, sequence (P05771 2-671 limits assumed): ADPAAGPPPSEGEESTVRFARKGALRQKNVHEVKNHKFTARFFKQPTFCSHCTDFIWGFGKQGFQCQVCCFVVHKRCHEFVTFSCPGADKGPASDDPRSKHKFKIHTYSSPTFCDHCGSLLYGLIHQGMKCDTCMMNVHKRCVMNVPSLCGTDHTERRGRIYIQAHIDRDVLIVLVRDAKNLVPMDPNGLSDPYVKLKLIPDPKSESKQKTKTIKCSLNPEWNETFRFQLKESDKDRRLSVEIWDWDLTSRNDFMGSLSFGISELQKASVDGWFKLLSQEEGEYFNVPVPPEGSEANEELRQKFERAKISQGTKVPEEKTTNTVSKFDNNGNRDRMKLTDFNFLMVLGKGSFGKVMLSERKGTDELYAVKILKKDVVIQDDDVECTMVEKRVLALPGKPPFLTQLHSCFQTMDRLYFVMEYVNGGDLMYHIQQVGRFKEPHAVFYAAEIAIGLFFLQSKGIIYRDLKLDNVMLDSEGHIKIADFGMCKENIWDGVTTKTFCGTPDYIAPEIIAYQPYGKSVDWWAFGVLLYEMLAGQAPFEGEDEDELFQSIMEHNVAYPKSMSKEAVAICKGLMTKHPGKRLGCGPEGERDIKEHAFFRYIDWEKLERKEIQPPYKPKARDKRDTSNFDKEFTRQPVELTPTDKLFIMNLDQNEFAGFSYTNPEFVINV
MAP kinase-activated protein kinase 2 (Homo sapiens), sequence (P49137 whole entry, looked up): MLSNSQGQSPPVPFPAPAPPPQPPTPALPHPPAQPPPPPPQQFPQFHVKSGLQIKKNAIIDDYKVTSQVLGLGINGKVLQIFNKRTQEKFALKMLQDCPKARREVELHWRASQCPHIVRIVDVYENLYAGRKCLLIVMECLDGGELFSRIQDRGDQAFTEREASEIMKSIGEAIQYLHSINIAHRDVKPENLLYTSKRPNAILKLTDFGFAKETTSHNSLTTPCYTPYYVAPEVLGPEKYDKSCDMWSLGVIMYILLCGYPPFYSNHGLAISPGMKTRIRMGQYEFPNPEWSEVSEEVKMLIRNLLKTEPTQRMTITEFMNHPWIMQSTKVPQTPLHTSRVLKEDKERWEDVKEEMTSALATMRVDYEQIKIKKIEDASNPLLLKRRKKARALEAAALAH
Epidermal growth factor receptor (Homo sapiens), sequence (P00533 whole entry): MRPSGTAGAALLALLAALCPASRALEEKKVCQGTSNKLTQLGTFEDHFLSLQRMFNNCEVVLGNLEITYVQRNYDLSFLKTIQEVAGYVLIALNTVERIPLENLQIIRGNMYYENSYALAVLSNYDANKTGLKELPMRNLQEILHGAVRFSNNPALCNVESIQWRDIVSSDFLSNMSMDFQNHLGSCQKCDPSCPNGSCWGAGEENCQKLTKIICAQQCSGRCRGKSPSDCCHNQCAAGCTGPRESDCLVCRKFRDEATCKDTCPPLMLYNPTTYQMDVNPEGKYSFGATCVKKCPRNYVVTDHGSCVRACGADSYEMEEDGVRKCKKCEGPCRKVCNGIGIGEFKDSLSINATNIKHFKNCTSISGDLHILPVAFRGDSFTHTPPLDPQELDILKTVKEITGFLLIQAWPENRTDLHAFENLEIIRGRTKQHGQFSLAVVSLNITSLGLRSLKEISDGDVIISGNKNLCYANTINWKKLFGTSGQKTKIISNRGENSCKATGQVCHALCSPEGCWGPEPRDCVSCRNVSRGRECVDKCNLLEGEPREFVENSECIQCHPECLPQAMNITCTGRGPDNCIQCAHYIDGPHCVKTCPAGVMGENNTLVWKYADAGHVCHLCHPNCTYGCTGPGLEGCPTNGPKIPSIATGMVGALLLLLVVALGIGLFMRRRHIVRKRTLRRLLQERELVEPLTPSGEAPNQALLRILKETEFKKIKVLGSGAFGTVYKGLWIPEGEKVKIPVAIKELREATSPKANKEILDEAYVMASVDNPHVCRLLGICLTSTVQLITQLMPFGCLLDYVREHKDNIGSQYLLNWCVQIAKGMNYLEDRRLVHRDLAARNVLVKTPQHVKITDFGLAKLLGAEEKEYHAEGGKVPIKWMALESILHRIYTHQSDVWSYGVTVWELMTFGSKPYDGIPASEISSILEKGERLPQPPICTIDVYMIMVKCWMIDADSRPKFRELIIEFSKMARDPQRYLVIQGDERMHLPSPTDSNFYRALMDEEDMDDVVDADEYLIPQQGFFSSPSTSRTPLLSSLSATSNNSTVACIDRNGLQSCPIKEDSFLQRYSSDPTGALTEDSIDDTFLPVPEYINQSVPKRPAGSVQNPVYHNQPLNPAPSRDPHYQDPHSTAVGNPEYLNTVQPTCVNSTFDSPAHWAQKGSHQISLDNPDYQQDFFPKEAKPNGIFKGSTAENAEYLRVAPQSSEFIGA
3-phosphoinositide-dependent protein kinase 1 (Homo sapiens), sequence (O15530 whole entry, looked up): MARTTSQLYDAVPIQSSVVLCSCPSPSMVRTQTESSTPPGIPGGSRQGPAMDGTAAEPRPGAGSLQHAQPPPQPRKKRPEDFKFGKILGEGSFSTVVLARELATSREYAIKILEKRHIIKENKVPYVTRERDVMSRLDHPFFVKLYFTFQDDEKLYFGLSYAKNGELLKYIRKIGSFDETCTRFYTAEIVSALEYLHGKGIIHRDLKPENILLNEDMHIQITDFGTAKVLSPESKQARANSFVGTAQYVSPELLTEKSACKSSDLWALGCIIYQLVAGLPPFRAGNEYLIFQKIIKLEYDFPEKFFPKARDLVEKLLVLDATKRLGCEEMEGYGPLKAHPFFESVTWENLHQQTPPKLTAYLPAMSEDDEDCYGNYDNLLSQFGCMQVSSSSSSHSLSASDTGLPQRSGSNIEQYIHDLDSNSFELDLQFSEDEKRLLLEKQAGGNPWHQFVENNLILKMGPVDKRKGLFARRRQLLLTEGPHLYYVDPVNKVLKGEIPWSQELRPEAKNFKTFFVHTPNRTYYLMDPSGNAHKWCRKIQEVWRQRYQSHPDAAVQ

In the case of `CN(C)c1nc2ccc1CCCn1cc(c3ccccc31)C1=C(C(=O)NC1=O)c1cn(c3ccccc13)CC2`, the residual activity in [1] was determined as 91%; in experiment [2], 115%; in [3], 54%; in experiment [4], 64%; in [5], 89%; in experiment [6] it was 94%. In addition, the values for the residual activity in [7], in experiment [8] and in experiment [9] were 89%, 125% and 98%, respectively.
Turning to `O=C1NC(=O)C2=C1c1cn(c3ccccc13)CCCc1cc(nc(N3CCCC3)c1)CCCn1cc2c2ccccc21`, the residual activity is 99% in experiment [1]; 107% in [2]; 88% in experiment [3]; 74% in [4]; 109% in experiment [5]; 108% in experiment [6]. For the same compound, the results for the residual activity in experiment [7], in [8] and in [9] were 107%, 110% and 108%, respectively.
In the case of `CN(C)c1cc2cc(n1)CCCn1cc(c3ccccc31)C1=C(C(=O)NC1=O)c1cn(c3ccccc13)CCC2`, the residual activity in experiment [1] was found to be 98%; in experiment [2] it was 104%; in experiment [3], 84%; in experiment [4] it was 68%; in experiment [5], 103%; in experiment [6] it was 96%. Besides, the residual activity in [7] worked out at 108%; in experiment [8], 114%; in experiment [9], 101%.
Turning to `O=C1NC(=O)C2=C1c1cn(c3ccccc13)CCCc1ccc(c(N3CCCC3)n1)CCCn1cc2c2ccccc21`, the residual activity in experiment [2] is 100%; in [3], 88%; in experiment [4] it was 77%; in experiment [5], 100%; in experiment [6] it was 104%; in experiment [7], 111%. For the same compound, in experiment [8], the residual activity was found to be 114%.
